Values joined by “and” are separate entries in the source; they are usually repeats but may differ in a detail not shown here. Equal values may be shown once.
Details: Liquid, Rate of evaporation

OCCN(CCO)CCO [triethanolamine]
Details	vapor or sublimation pressure
365 K	0.000835 kPa
375 K	0.002129 kPa and 0.002041 kPa
385 K	0.005005 kPa and 0.004526 kPa
395 K	0.01093 kPa and 0.009521 kPa
400 K	0.01404 kPa
405 K	0.02229 kPa and 0.01908 kPa
410 K	0.02726 kPa
415 K	0.04274 kPa and 0.03658 kPa and 0.03733 kPa
420 K	0.05078 kPa
425 K	0.07739 kPa and 0.06729 kPa and 0.06993 kPa
430 K	0.09108 kPa and 0.0987 kPa and 0.0881 kPa
435 K	0.133 kPa and 0.1191 kPa and 0.1259 kPa
440 K	0.1577 kPa and 0.1715 kPa and 0.1578 kPa
445 K	0.2176 kPa and 0.2036 kPa and 0.2184 kPa
450 K	0.2644 kPa and 0.2908 kPa and 0.2755 kPa
455 K	0.3407 kPa and 0.3368 kPa and 0.3662 kPa
460 K	0.4694 kPa [middle of 4 runs]
465 K	0.5116 kPa and 0.5424 kPa and 0.5946 kPa
470 K	0.7812 kPa and 0.7818 kPa
475 K	0.9374 kPa
480 K	1.165 kPa and 1.242 kPa and 1.275 kPa
490 K	1.936 kPa and 2.038 kPa
500 K	3.196 kPa
510 K	4.926 kPa
515 K	6.077 kPa
